DBAASP
Converted amounts (≈) assume the structure as drawn. One block for each compound: values may come before it.

How the values were obtained:
Test in all cases: ≥ marks a high value that may be exact or a test limit, other limits are often not marked, values filed in µg/mL are converted to µM
[1] = tested on: Salmonella enterica subsp. enterica serovar Typhimurium ATCC 14028
[2] = tested on: Bacillus subtilis CMCC 63501
[3] = tested on: Staphylococcus aureus ATCC 6538
[4] = tested on: Listeria monocytogenes ATCC 19115
[5] = tested on: Escherichia coli CICC 10670
[6] = tested on: Bacillus subtilis 168
[7] = tested on: Staphylococcus aureus USA 300
[8] = tested on: Staphylococcus aureus NRS 72
[9] = tested on: Mycobacterium tuberculosis H37Ra
[10] = tested on: Pseudomonas aeruginosa PAO1
[11] = tested on: Escherichia coli DH5alpha
[12] = tested on: Klebsiella pneumoniae ATCC BAA-2814
[13] = tested on: Enterococcus faecium ATCC 19434
[14] = tested on: Staphylococcus aureus ATCC BAA-2312
[15] = tested on: Escherichia coli ATCC 35218
[16] = tested on: Staphylococcus aureus ATCC 12600
[17] = tested on: Klebsiella pneumoniae ATCC 49472
[18] = tested on: Enterococcus faecalis ATCC 51299
[19] = tested on: Pseudomonas aeruginosa ATCC 27853
[20] = tested on: Escherichia coli TOP 10
[21] = tested on: Staphylococcus aureus SH1000
[22] = tested on: Klebsiella pneumoniae ATCC BAA-1705
[23] = tested on: Escherichia coli W3110
[24] = tested on: Candida albicans FRR 5580
[25] = tested on: Staphylococcus aureus ATCC 25923
[26] = tested on: Escherichia coli ATCC 25922
[27] = tested on: Pseudomonas aeruginosa ATCC 9027
[28] = tested on: Pseudomonas aeruginosa 15159
[29] = tested on: Staphylococcus aureus FDA 486
[30] = tested on: Staphylococcus aureus 2844
[31] = tested on: Staphylococcus aureus ATCC 29213
[32] = tested on: Staphylococcus aureus ATCC 43300
[33] = tested on: Enterococcus faecium ATCC 700221
[34] = tested on: Salmonella enterica ATCC 6539
[35] = tested on: Klebsiella pneumoniae ATCC 700603
[36] = tested on: Acinetobacter baumannii ATCC BAA-747

MIC [1]: 20 µM (≈ 51.9 µg/mL)
MIC [2]: 10 µM (≈ 26 µg/mL)
MIC [3]: 20 µM (≈ 51.9 µg/mL)
MIC [4]: 20 µM (≈ 51.9 µg/mL)
MIC [5]: ≥ 40 µM
SMILES: CC(C)C[C@H](NC(=O)[C@H](Cc1ccccc1)NC(=O)[C@@H](NC(=O)[C@H](CC(C)C)NC(=O)[C@H](CC(=O)O)NC(=O)[C@H](CCCCN)NC(=O)[C@H](C)NC(=O)[C@@H](NC(=O)[C@H](CC(C)C)NC(=O)[C@@H](NC(=O)[C@H](C)N)[C@@H](C)O)[C@@H](C)O)[C@@H](C)O)C(=O)N[C@@H](CCC(N)=O)C(=O)N[C@@H](CC(=O)O)C(=O)N[C@@H](Cc1ccc(O)cc1)C(=O)N[C@@H](CCCCN)C(=O)N[C@@H](CCCCN)C(=O)N[C@H](C(=O)N[C@@H](CCCCN)C(=O)N[C@@H](CCCCN)C(=O)N[C@@H](CCCN=C(N)N)C(=O)N[C@H](C(=O)N[C@@H](CCCCN)C(=O)O)C(C)C)[C@@H](C)O [ATLTAKDLTFLQDYKKTKKRVK]

MIC [6]: 0.6 µM (≈ 1.09 µg/mL)
MIC [7]: 7 µM (≈ 12.7 µg/mL)
MIC [8]: 5 µM (≈ 9.06 µg/mL)
MIC [9]: 20 µM (≈ 36.2 µg/mL)
MIC [10]: 20 µM (≈ 36.2 µg/mL)
MIC [11]: 10 µM (≈ 18.1 µg/mL)
SMILES: CC(C)C[C@H](NC(=O)[C@H](Cc1c[nH]c2ccccc12)NC(=O)[C@H](CCCCN)NC(=O)[C@H](CCCN=C(N)N)NC(=O)[C@H](Cc1c[nH]c2ccccc12)NC(=O)[C@@H](NC(=O)CNC(=O)[C@@H](NC(=O)[C@H](Cc1c[nH]c2ccccc12)NC(=O)[C@H](CCCN=C(N)N)NC(=O)[C@H](CCCCN)NC(=O)[C@H](Cc1c[nH]c2ccccc12)NC(=O)[C@@H](N)CC(C)C)C(C)C)C(C)C)C(N)=O [LWKRWVGVWRKWL]

MIC [1]: 125 µM (≈ 282 µg/mL)
MIC [12]: ≥ 125 µM
MIC [13]: ≥ 250 µM
MIC [14]: ≥ 250 µM
MIC [15]: ≥ 62.5 µM
MIC [16]: ≥ 250 µM
MIC [17]: ≥ 125 µM
MIC [18]: ≥ 250 µM
MIC [19]: > 125 µM
SMILES: CC[C@H](C)[C@H](NC(=O)[C@H](CCC(N)=O)NC(=O)[C@H](CO)NC(=O)[C@H](C)NC(=O)[C@H](CC(C)C)NC(=O)[C@H](Cc1cnc[nH]1)NC(=O)[C@@H](NC(=O)[C@H](CC(C)C)NC(=O)[C@H](CC(C)C)NC(=O)[C@H](CCC(=O)O)NC(=O)[C@H](CCCCN)NC(=O)CNC(=O)[C@H](C)NC(=O)CNC(=O)[C@H](CCCCN)NC(=O)[C@H](Cc1ccccc1)NC(=O)[C@H](Cc1ccccc1)NC(=O)[C@H](CC(=O)O)NC(=O)[C@H](CC(C)C)NC(=O)[C@H](CC(C)C)NC(=O)CN)[C@@H](C)O)C(N)=O [GLLDFFKGAGKELLTHLASQI]

MIC [20]: 10.7 µM (≈ 25 µg/mL)
SMILES: CC[C@H](C)[C@H](N)C(=O)N[C@@H](CC(C)C)C(=O)N1CCC[C@H]1C(=O)N[C@@H](CC(C)C)C(=O)N[C@@H](CC(C)C)C(=O)N[C@@H](CCCCN)C(=O)N[C@@H](CCCCN)C(=O)N[C@@H](Cc1ccccc1)C(=O)NCC(=O)N[C@@H](CCCCN)C(=O)N[C@@H](CCCCN)C(=O)N[C@@H](Cc1ccccc1)C(=O)NCC(=O)N[C@@H](CCCCN)C(=O)N[C@@H](CCCCN)C(=O)N[C@H](C(=O)N[C@@H](Cc1c[nH]c2ccccc12)C(=O)N[C@@H](CCCCN)C(=O)N[C@@H](C)C(=O)N[C@@H](CC(C)C)C(N)=O)C(C)C [ILPLLKKFGKKFGKKVWKAL]

MIC [21]: ≥ 100 µM
SMILES: CC[C@H](C)[C@H](NC(=O)[C@H](CC(=O)O)NC(=O)[C@H](Cc1ccccc1)NC(=O)[C@H](CC(C)C)NC(=O)[C@@H](N)CCCCN)C(=O)N[C@H](C(=O)N[C@@H](CCCCN)C(=O)N[C@@H](CCCCN)C(=O)N[C@H](C(=O)N[C@H](C(=O)NCC(=O)N[C@@H](C)C(=O)N[C@@H](CC(C)C)C(=O)NCC(N)=O)C(C)C)C(C)C)C(C)C [KLFDIVKKVVGALG]

MIC [22]: ≥ 128 µM
MIC [23]: 16 µM (≈ 35.6 µg/mL)
SMILES: CC[C@H](C)[C@H](N)C(=O)N[C@@H](CC(C)C)C(=O)N[C@@H](Cc1c[nH]c2ccccc12)C(=O)N[C@@H](C)C(=O)N[C@@H](CS)C(=O)N[C@@H](Cc1c[nH]c2ccccc12)C(=O)NCC(=O)N[C@@H](CC(C)C)C(=O)N[C@@H](CCCCN)C(=O)N[C@@H](CC(C)C)C(=O)N[C@@H](CC(C)C)C(=O)N[C@@H](CCCN=C(N)N)C(=O)N[C@@H](Cc1ccc(O)cc1)C(=O)N[C@@H](CCCN=C(N)N)C(=O)N[C@@H](CCCN=C(N)N)C(=O)N[C@H](C(=O)N[C@@H](Cc1ccc(O)cc1)C(=O)O)[C@@H](C)CC [ILWACWGLKLLRYRRIY]

MIC [24]: ≥ 114 µM
MIC [25]: 29.1 µM (≈ 64 µg/mL)
MIC [26]: 29.1 µM (≈ 64 µg/mL)
MIC [27]: 29.1 µM (≈ 64 µg/mL)
SMILES: NC(=O)[C@H](CCCN=C(N)N)NC(=O)[C@H](CCCN=C(N)N)NC(=O)[C@H](Cc1c[nH]c2ccccc12)NC(=O)[C@H](Cc1c[nH]c2ccccc12)NC(=O)[C@H](CCCN=C(N)N)NC(=O)[C@H](Cc1c[nH]c2ccccc12)NC(=O)[C@H](Cc1c[nH]c2ccccc12)NC(=O)[C@H](CCCN=C(N)N)NC(=O)[C@H](Cc1c[nH]c2ccccc12)NC(=O)[C@H](CCCN=C(N)N)NC(=O)[C@H](CCCN=C(N)N)NC(=O)[C@H](CCCN=C(N)N)NC(=O)[C@@H](N)CCCN=C(N)N [RRRRWRWWRWWRR]

MIC [28]: 10 µM (≈ 22.2 µg/mL)
MIC [29]: 5 µM (≈ 11.1 µg/mL)
MIC [30]: 5 µM (≈ 11.1 µg/mL)
MIC [19]: 10 µM (≈ 22.2 µg/mL)
MIC [31]: 10 µM (≈ 22.2 µg/mL)
SMILES: CC[C@H](C)[C@H](NC(=O)[C@H](CCCN=C(N)N)NC(=O)[C@H](CCC(N)=O)NC(=O)[C@@H](NC(=O)[C@@H](NC(=O)[C@H](CCCN=C(N)N)NC(=O)[C@H](CCCCN)NC(=O)[C@H](Cc1ccccc1)NC(=O)[C@H](CCC(=O)O)NC(C)=O)[C@@H](C)CC)C(C)C)C(=O)N[C@@H](CCCCN)C(=O)N[C@@H](CC(=O)O)C(=O)N[C@@H](Cc1ccccc1)C(=O)N[C@@H](CC(C)C)C(=O)N[C@@H](CCCN=C(N)N)C(=O)N[C@@H](CC(N)=O)C(=O)N[C@@H](CC(C)C)C(=O)N[C@H](C(N)=O)C(C)C [EFKRIVQRIKDFLRNLV]

MIC [32]: 66 µM (≈ 63.9 µg/mL)
MIC [33]: 8 µM (≈ 7.75 µg/mL)
MIC [34]: 8 µM (≈ 7.75 µg/mL)
MIC [26]: 17 µM (≈ 16.5 µg/mL)
MIC [19]: 33 µM (≈ 31.9 µg/mL)
MIC [35]: 66 µM (≈ 63.9 µg/mL)
MIC [36]: ≥ 132 µM
SMILES: NC(=O)[C@H](CCCN=C(N)N)NC(=O)[C@H](CS)NC(=O)[C@H](Cc1ccc(O)cc1)NC(=O)[C@H](Cc1c[nH]c2ccccc12)NC(=O)[C@H](CCCN=C(N)N)NC(=O)[C@@H](N)Cc1c[nH]c2ccccc12 [WRWYCR]
